From ChEMBL document CHEMBL1201862, “PubChem BioAssay data set” (2004)
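Step 1: Grow cells in 96-well plates. Step 2: Expose to compound for 48 hours at 5 concentrations. Step 3: Interpolate endpoints linearly; if unreached, use highest concentration. GI50: concentration for 50% inhibition of growth.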 Calls of active or inactive are those of the source. Rule as the data show it: active = GI50 up to about 1.1 µM and inactive = higher.

Tests used:
Experiment in all cases: growth of human tumour cells (NCI), 48 h
OVCAR-8 = test system: OVCAR-8
MDA-N = test system: MDA-N
HCT-116 = test system: HCT-116
NCI/ADR-RES = test system: NCI/ADR-RES
SNB-75 = test system: SNB-75
SW-620 = test system: SW-620
786-0 = test system: 786-0
A549 = test system: A549
UO-31 = test system: UO-31
TK-10 = test system: TK-10
SNB-19 = test system: SNB-19
DU-145 = test system: DU-145
NCI-H460 = test system: NCI-H460
HOP-92 = test system: HOP-92
OVCAR-3 = test system: OVCAR-3
MOLT-4 = test system: MOLT-4
SK-OV-3 = test system: SK-OV-3
M14 = test system: M14
RPMI-8226 = test system: RPMI-8226

| SMILES | GI50 (OVCAR-8) | GI50 (MDA-N) | GI50 (HCT-116) | GI50 (NCI/ADR-RES) | GI50 (SNB-75) | GI50 (SW-620) | GI50 (786-0) | GI50 (A549) | GI50 (UO-31) | GI50 (TK-10) | GI50 (SNB-19) | GI50 (DU-145) | GI50 (NCI-H460) | GI50 (HOP-92) | GI50 (OVCAR-3) | GI50 (MOLT-4) | GI50 (SK-OV-3) | GI50 (M14) | GI50 (RPMI-8226) |
| --- | --- | --- | --- | --- | --- | --- | --- | --- | --- | --- | --- | --- | --- | --- | --- | --- | --- | --- | --- |
| Cc1ccc2c(c1)-c1nc(N)c(C#N)c(-c3ccc(Cl)cc3)c1CCS2(=O)=O | 32 µM (inactive) | 39.3 µM (inactive) | 33 µM (inactive) | 36.2 µM (inactive) | 49 µM (inactive) | 46 µM (inactive) | 40.6 µM (inactive) | 34.8 µM (inactive) | 20 µM (inactive) | 66.4 µM (inactive) | 50.6 µM (inactive) | 53.8 µM (inactive) | 35.2 µM (inactive) | 36.1 µM (inactive) | – | – | – | – | – |
| CN1CC(C(=O)C2C(=O)c3ccccc3C2=O)C(=O)C(=O)C(C(=O)C2C(=O)c3ccccc3C2=O)C1 (configuration not stated) | 77.6 µM (inactive) | – | > 100 µM (inactive) | – | 32.9 µM (inactive) | > 100 µM (inactive) | > 100 µM (inactive) | > 100 µM (inactive) | > 100 µM (inactive) | > 100 µM (inactive) | > 100 µM (inactive) | – | > 100 µM (inactive) | 85.1 µM (inactive) | > 10 µM (inactive) | > 100 µM (inactive) | > 100 µM (inactive) | > 10 µM (inactive) | – |
| CC(=O)OCc1cc2ccccc2nc1C(Br)(Br)Br | – | – | 12.5 µM (inactive) | 17.1 µM (inactive) | 14.6 µM (inactive) | 18.7 µM (inactive) | 19.4 µM (inactive) | 16.4 µM (inactive) | 15.6 µM (inactive) | 16.1 µM (inactive) | 20.1 µM (inactive) | 4.59 µM (inactive) | 16.2 µM (inactive) | 11.7 µM (inactive) | 14.8 µM (inactive) | 9.02 µM (inactive) | 28.3 µM (inactive) | 18.8 µM (inactive) | – |
| Cc1cc(N(CCCCl)CCCCl)ccc1/C=N/c1cccc(Cl)c1 | 11.9 µM (inactive) | – | 25 µM (inactive) | 14.2 µM (inactive) | 12.1 µM (inactive) | 12.3 µM (inactive) | 14.2 µM (inactive) | 12.3 µM (inactive) | 10.5 µM (inactive) | 10.6 µM (inactive) | 15.3 µM (inactive) | 14.7 µM (inactive) | 0.977 µM (active) | – | 14.5 µM (inactive) | 4.41 µM (inactive) | 19.1 µM (inactive) | 18.5 µM (inactive) | < 0.01 µM (active) |
| O=C(CC(C(=O)c1cccs1)c1cccs1)c1ccccc1Cl (configuration not stated) | > 100 µM (inactive) | 97.7 µM (inactive) | 52.1 µM (inactive) | 33.5 µM (inactive) | > 100 µM (inactive) | > 100 µM (inactive) | > 100 µM (inactive) | > 100 µM (inactive) | 29.7 µM (inactive) | > 100 µM (inactive) | > 100 µM (inactive) | > 100 µM (inactive) | 77.1 µM (inactive) | – | – | 46.1 µM (inactive) | > 100 µM (inactive) | > 100 µM (inactive) | 50.1 µM (inactive) |
| O=C(N/N=C(COc1ccccc1)\N=C\c1cccnc1)c1ccncc1 | > 100 µM (inactive) | > 100 µM (inactive) | > 100 µM (inactive) | > 100 µM (inactive) | 36.8 µM (inactive) | > 100 µM (inactive) | > 100 µM (inactive) | > 100 µM (inactive) | – | > 100 µM (inactive) | > 100 µM (inactive) | > 100 µM (inactive) | > 100 µM (inactive) | – | > 100 µM (inactive) | > 100 µM (inactive) | > 100 µM (inactive) | > 100 µM (inactive) | > 100 µM (inactive) |
| COc1ccccc1NC(=O)C1=C(C)NC(C)=C(C(=O)Nc2ccccc2OC)C1c1ccc([N+](=O)[O-])cc1 | > 100 µM (inactive) | – | 60.5 µM (inactive) | – | > 100 µM (inactive) | 93.1 µM (inactive) | 99.5 µM (inactive) | > 100 µM (inactive) | – | 74.5 µM (inactive) | 89.1 µM (inactive) | – | 28.8 µM (inactive) | – | > 100 µM (inactive) | 7.23 µM (inactive) | > 100 µM (inactive) | 85.7 µM (inactive) | 18.5 µM (inactive) |
| C[C@@H]1C[C@H]2[C@@H]3CCC4=CC(=O)C=C[C@]4(C)[C@@]3(Cl)[C@@H](Cl)C[C@]2(C)[C@@]1(O)C(=O)COP(=O)(O)O | > 100 µM (inactive) | 56.2 µM (inactive) | 89.3 µM (inactive) | – | > 100 µM (inactive) | > 100 µM (inactive) | 49.3 µM (inactive) | > 100 µM (inactive) | > 100 µM (inactive) | > 100 µM (inactive) | > 100 µM (inactive) | > 100 µM (inactive) | – | > 100 µM (inactive) | > 100 µM (inactive) | 22 µM (inactive) | > 100 µM (inactive) | > 100 µM (inactive) | 0.0128 µM (active) |
